Assay results reported in publication PMC5465072 (Scientific Reports, 2017).
Entries after “also recorded” stand apart in the source; their conditions may differ. Square brackets hold non-standard residues; d marks the D form. Ends that are not written are not given here. Peptide text beside a SMILES is read from it. Phe(4-Cl) = N[C@@H](Cc1ccc(Cl)cc1)C(=O)O

What was measured:
[1] = target: His6-PA488–735 / GST-CMG2_38–218 interaction (UniProt P13423+P58335); assay: biochemical; set-up: species or system Bacillus anthracis PA / human CMG2
[2] = target: His6-PA596–735 / GST-CMG2_38–218 interaction (Homo sapiens, UniProt P58335); assay: biochemical; format: biochemical, Bacillus anthracis PA / human CMG2
[3] = target: CMG2_38–218 (Homo sapiens, UniProt P58335); assay: biochemical; format: binding
[4] = system: J774 cells; format: cell-based

Chain of His6-PA596–735 / GST-CMG2_38–218 interaction (P58335 38-218 limits assumed): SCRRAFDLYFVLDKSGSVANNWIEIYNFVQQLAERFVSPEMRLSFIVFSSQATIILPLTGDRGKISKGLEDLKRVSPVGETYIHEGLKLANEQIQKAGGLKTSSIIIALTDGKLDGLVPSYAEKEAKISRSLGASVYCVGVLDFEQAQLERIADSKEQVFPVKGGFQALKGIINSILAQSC
Chain of His6-PA488–735 / GST-CMG2_38–218 interaction (P13423 517-764 limits assumed): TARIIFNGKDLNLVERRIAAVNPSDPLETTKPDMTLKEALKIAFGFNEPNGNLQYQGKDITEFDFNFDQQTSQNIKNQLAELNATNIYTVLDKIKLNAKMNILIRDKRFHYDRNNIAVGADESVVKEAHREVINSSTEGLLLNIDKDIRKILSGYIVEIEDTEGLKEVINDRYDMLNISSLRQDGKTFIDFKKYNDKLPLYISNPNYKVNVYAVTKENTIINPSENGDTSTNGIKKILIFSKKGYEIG
Chain of His6-PA488–735 / GST-CMG2_38–218 interaction (P58335 38-218 limits assumed): as the sequence (P58335 38-218 limits assumed) above
Chain of CMG2_38–218 (P58335 38-218): as the sequence (P58335 38-218 limits assumed) above

CLRFT [CLRFT]
IC50 [1]: 77.1 ± 9.5 µM
IC50 [2]: 71.3 ± 6.5 µM
Kd [3]: 30.2 ± 1.2 µM

(4-Cl-F)CRTL
protection of J774 cells from lethal toxin [4]: No protective effect; also recorded: no such protection

CMNHFPA [CMNHFPA]
IC50 [1]: 49.8 ± 2.7 µM
IC50 for disruption of the interaction of His6-PA596–735 and GST-CMG2_38–218 [2]: not active; also recorded: lost all activity

HPCNAMF [HPCNAMF]
IC50 [1]: 153 ± 9.3 µM
fold loss of activity in PA/CMG2 ELISA over the parent peptide CMNHFPA [1]: 3 fold

H-CMNHAPA-OH [CMNHAPA]
IC50 [1]: 522 ± 47.8 µM
fold loss of activity in PA/CMG2 ELISA over the parent peptide CMNHFPA [1]: 10 fold

CC(C)C[C@H](NC(=O)[C@@H](N)CS)C(=O)N[C@@H](CCCNC(=N)N)C(=O)N[C@@H](Cc1ccc(Cl)cc1)C(=O)N[C@H](C(=O)O)[C@@H](C)O [CLR(4-Cl-F)T] (H-CLR[Phe(4-Cl)]T-OH)
concentration that protects J774 cells from lethal toxin [4]: ≥ 50 µM

CLRPT [CLRPT]
IC50 [1]: 153 ± 2.9 µM

FCRTL
IC50 for disruption of the interaction of His6-PA488–735 and GST-CMG2_38–218 [1]: inactive
